Key:
ACHN (Renal Cancer) = experiment: NCI one dose, ACHN; assay type: cell-based, human; settings: 1.00E-5 Molar one dose
Outline: (§1)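 Selected compounds went through the NCI sixty-line screen; a 48 h treatment preceded sulforhodamine B quantification.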

HCT-116 (Colon Cancer) = experiment: NCI one dose, HCT-116; assay type: cell-based, human; settings: HCT-116, 1.00E-5 Molar one dose
Outline: (§2)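 Cells of the National Cancer Institute 60-line human cancer screen are treated with test compound for 48 h, then growth is quantified by SRB assay.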

RXF 393 (Renal Cancer) = experiment: NCI one dose, RXF 393; assay type: cell-based, human; settings: RXF 393, 1.00E-5 Molar one dose
Outline: as §2

[1] = tested on: NCI-H23 (Non-Small Cell Lung Cancer); experiment: NCI one dose, NCI-H23; assay type: cell-based, human; settings: NCI-H23, 1.00E-5 Molar one dose
Outline: as §2

CCRF-CEM (Leukemia) = experiment: NCI one dose, CCRF-CEM; assay type: cell-based, human; settings: 1.00E-5 Molar one dose
Outline: as §2

[2] = tested on: HOP-92 (Non-Small Cell Lung Cancer); experiment: NCI one dose, HOP-92; assay type: cell-based, human; settings: HOP-92, 1.00E-5 Molar one dose
Outline: as §2

KM12 (Colon Cancer) = experiment: NCI one dose, KM12; assay type: cell-based, human; settings: KM12, 1.00E-5 Molar one dose
Outline: as §2

MOLT-4 (Leukemia) = experiment: NCI one dose, MOLT-4; assay type: cell-based, human; settings: MOLT-4, 1.00E-5 Molar one dose
Outline: as §2

K-562 leukaemia cells = experiment: NCI one dose, K-562; assay type: cell-based, human; settings: K-562, 1.00E-5 Molar one dose
Outline: as §2

PC-3 (Prostate Cancer) = experiment: NCI one dose, PC-3; assay type: cell-based, human; settings: PC-3, 1.00E-5 Molar one dose
Outline: as §2

CAKI-1 (Renal Cancer) = experiment: NCI one dose, CAKI-1; assay type: cell-based, human; settings: CAKI-1, 1.00E-5 Molar one dose
Outline: as §2

[3] = tested on: HOP-62 (Non-Small Cell Lung Cancer); experiment: NCI one dose, HOP-62; assay type: cell-based, human; settings: HOP-62, 1.00E-5 Molar one dose
Outline: as §2

SF-268 (CNS Cancer) = experiment: NCI one dose, SF-268; assay type: cell-based, human; settings: SF-268, 1.00E-5 Molar one dose
Outline: as §2

MALME-3M (Melanoma) = experiment: NCI one dose, MALME-3M; assay type: cell-based, human; settings: 1.00E-5 Molar one dose
Outline: as §1

LOX IMVI (Melanoma) = experiment: NCI one dose, LOX IMVI; assay type: cell-based, human; settings: 1.00E-5 Molar one dose
Outline: as §2

BT-549 (Breast Cancer) = experiment: NCI one dose, BT-549; assay type: cell-based, human; settings: BT-549, 1.00E-5 Molar one dose
Outline: as §2

[4] = biological target: human farnesyltransferase (FTase) (Homo sapiens, UniProt P49354+P49356); experiment: FTase inhibitory assay (fluorescence, Dansyl-GCVLS); assay type: biochemical; settings: inhibition of human FTase at 100 μM of tested compound; mean of two experiments
Outline: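 Partially purified recombinant FTase with Dansyl-GCVLS and farnesyl pyrophosphate in Tris/HCl pH 7.5 (DTT, MgCl2, ZnCl2, octyl-glucoside); fluorescence (ex 340/em 486 nm) read 15 min at 30 °C. IC50 by regression for compounds inhibiting >60% at 100 µM; kinetics varied FPP (Dns-GCVLS 2.5 μM) or peptide (FPP 10 μM).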

U251 (CNS Cancer) = experiment: NCI one dose, U251; assay type: cell-based, human; settings: U251, 1.00E-5 Molar one dose
Outline: as §2

SK-MEL-2 (Melanoma) = experiment: NCI one dose, SK-MEL-2; assay type: cell-based, human; settings: SK-MEL-2, 1.00E-5 Molar one dose
Outline: as §2

UO-31 renal cancer cells = experiment: NCI one dose, UO-31; assay type: cell-based, human; settings: UO-31, 1.00E-5 Molar one dose
Outline: as §2

[5] = tested on: NCI-H522 non-small cell lung cancer cells; experiment: NCI cell proliferation, NCI-H522; assay type: cell-based, human; settings: for inhibition at 10 µM: Homo sapiens, NCI-H522, read-out: % Cancer cell growth Inhibition (NCI-H522); for Growth Percent: NCI-H522, 1.00E-5 Molar one dose
Outline: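 An SRB-based cytotoxicity protocol was used, with 48 h treatment of the 60 human tumour lines screened at the National Cancer Institute.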

UACC-62 (Melanoma) = experiment: NCI one dose, UACC-62; assay type: cell-based, human; settings: UACC-62, 1.00E-5 Molar one dose
Outline: as §2

SNB-19 (CNS Cancer) = experiment: NCI one dose, SNB-19; assay type: cell-based, human; settings: SNB-19, 1.00E-5 Molar one dose
Outline: as §2

DU-145 (Prostate Cancer) = experiment: NCI one dose, DU-145; assay type: cell-based, human; settings: DU-145, 1.00E-5 Molar one dose
Outline: as §2

[6] = tested on: EKVX (Non-Small Cell Lung Cancer); experiment: NCI one dose, EKVX; assay type: cell-based, human; settings: 1.00E-5 Molar one dose
Outline: as §2

MDA-MB-435 (Melanoma) = experiment: NCI one dose, MDA-MB-435; assay type: cell-based, human; settings: MDA-MB-435, 1.00E-5 Molar one dose
Outline: as §1

SR (Leukemia) = experiment: NCI one dose, SR; assay type: cell-based, human; settings: 1.00E-5 Molar one dose
Protocol: 3.4. Cell Proliferation Assay
Selected compounds were tested on a panel of 60 human cancer cell lines at the National Cancer Institute (NCI), Germantown, MD, USA. The cytotoxicity studies were conducted using a 48 h exposure protocol using the sulfo-rhodamine B assay.

| Structure (SMILES) | Growth Percent (ACHN (Renal Cancer)) | Growth Percent (HCT-116 (Colon Cancer)) | Growth Percent (RXF 393 (Renal Cancer)) | Growth Percent [1] | Growth Percent (CCRF-CEM (Leukemia)) | Growth Percent [2] | Growth Percent (KM12 (Colon Cancer)) | Growth Percent (MOLT-4 (Leukemia)) | Growth Percent (K-562 leukaemia cells) | Growth Percent (PC-3 (Prostate Cancer)) | Growth Percent (CAKI-1 (Renal Cancer)) | Growth Percent [3] | Growth Percent (SF-268 (CNS Cancer)) | Growth Percent (MALME-3M (Melanoma)) | Growth Percent (LOX IMVI (Melanoma)) | Growth Percent (BT-549 (Breast Cancer)) | % FTI [4] | Growth Percent (U251 (CNS Cancer)) | Growth Percent (SK-MEL-2 (Melanoma)) | Growth Percent (UO-31 renal cancer cells) | other results |
| --- | --- | --- | --- | --- | --- | --- | --- | --- | --- | --- | --- | --- | --- | --- | --- | --- | --- | --- | --- | --- | --- |
| COc1cccc(CNC(=O)[C@@H]2CS[C@@]3(C)c4ccccc4C(=O)N23)c1 [4bE] | 106.16% | 104.89% | 107.08% | 98.91% | 94.80% | 101.27% | 107.56% | 85.50% | 82.59% | 96.89% | 85.65% | 98.17% | 106.18% | 110.68% | 101.37% | 110.64% | 56% | 100.00% | 97.24% | 91.68% | inhibition at 10 µM [5]: 33%; Growth Percent [5]: 67.45%; Growth Percent (UACC-62 (Melanoma)): 91.91%; Growth Percent (SNB-19 (CNS Cancer)): 102.99%; Growth Percent (DU-145 (Prostate Cancer)): 106.55%; Growth Percent [6]: 112.43%; Growth Percent (MDA-MB-435 (Melanoma)): 98.34%; Growth Percent (SR (Leukemia)): 81.22% |
| C[C@@]12SC[C@@H](C(=O)NCc3ccccc3C(F)(F)F)N1C(=O)c1ccccc12 [4bC] | 106.49% | 89.85% | 101.10% | 99.44% | 88.01% | 87.86% | 100.49% | 74.60% | 87.85% | 80.00% | 84.55% | 97.48% | 103.76% | 112.02% | 102.39% | 104.97% | 58% | 91.69% | 87.91% | 91.39% | inhibition at 10 µM [5]: 19%; Growth Percent [5]: 80.71%; Growth Percent (UACC-62 (Melanoma)): 87.36%; Growth Percent (SNB-19 (CNS Cancer)): 103.86%; Growth Percent (DU-145 (Prostate Cancer)): 102.05%; Growth Percent [6]: 104.01%; Growth Percent (MDA-MB-435 (Melanoma)): 98.98%; Growth Percent (SR (Leukemia)): 72.94% |

Reference: PMC11855478, “Bicyclic N,S-Acetals Containing Fused Cysteine-Amide System as New Heterocyclic Class Targeting Human Farnesyltransferase (FTase-h)” (International Journal of Molecular Sciences, 2025)
